Laboratory results published in patent publication US10047151B2, “Methods for the treatment of cancer and inflammatory diseases using cereblon as a predictor” (Celgene Corporation, priority 2011, dated 2018).

Experiments:
OCI-Ly10 DLBCL cells = test: OCI-Ly10 human tumor xenograft model; assay type: in vivo
Description: . A total of 10×10^6 OCI-Ly10 DLBCL cells in 100% Matrigel (Becton Dickinson, San Jose, Calif.) were injected subcutaneously into the right flank of mice. Mice were monitored 2 or 3 times a week for the appearance of tumors. Once the tumors reached an average size of 100-150 mg, 10 mice in each group were treated with either vehicle (0.5% carboxymethyl cellulose: 0.25% Tween 80 in deionized H2O) or indicated doses of lenalidomide (qd×28, p.o.) or the positive control vincristine (q4d×4, i.v.). Mice were monitored daily for health status as well as tumor growth. Tumors of all mice were measured with a digital caliper and volumes calculated with the following formula: tumor volume (mm^3)=length (mm)×width (mm)^2. Mice were killed when tumor size exceeded 1000 mm^3.
To confirm the relevance of lenalidomide-mediated inhibition of NF-κB/IRF4 signaling in vivo in ABC-DLBCL, a subcutaneous OCI-Ly10 xenograft model was established. […] Compared with vehicle control group, lenalidomide treatment for 7 days reduced IRF4 expression and BCL-10 cleavage by 15-35% (p<0.05).

IRF4 = IRF4 protein expression in ABC-DLBCL cells (Western blot); assay type: cell-based
Description: Cells were treated with test compounds or 0.1% DMSO for indicated times. Following incubation, cells were collected, pelleted with centrifugation, and immediately lysed in 0.1 ml lysis buffer containing 10 mM Tris-HCl pH 8.0, 10 mM EDTA, 150 mM NaCl, 1% NP-40, 0.5% SDS, 1 mM DTT, 1 mM Na3VO4, plus Complete protease inhibitor cocktail (Roche Applied Science, Indianapolis, Ind.), then processed with a Qiashredder™ (Qiagen, Valencia, Calif.) for 1 minute and frozen on dry ice. Samples were diluted with 6×SDS sample buffer and then boiled for 5 min. Approximately 30 μl of this mixture was loaded per lane on a Criterion Precast 4-12% Tris-HCl gel (Bio-Rad, Hercules, Calif.), electrophoresed, and transferred to nitrocellulose membranes (Bio-Rad, Hercules, Calif.). The membranes were blocked for 1 hour at room temperature using blocking buffer (LI-COR Biosciences, Lincoln, Nebr.), then incubated overnight at 4° C. with antibodies against either BCL-10, IRF4, CRBN or β-actin. Membranes were washed and incubated with IRDye Secondary Antibodies (1:30,000) for 1 hour at room temperature. A standard protocol was then followed for signal detection, using the Odyssey® Infrared Imaging System and software (LI-COR Biosciences, Lincoln, Nebr.).
To understand the molecular mechanism of lenalidomide on ABC-DLBCL cells, the effects of lenalidomide on IRF4 expression in these cells were investigated. […] Lenalidomide-induced decrease of IRF4 expression occurred as early as 1 day of drug treatment, with similar kinetics to that of the inhibitors (zVRPR-fmk and LY-333,531, respectively) of MALT1 and PKCβ, two key enzymes involved in NF-κB activation upon BCR engagement in B cells.

U266B1 cells = test: Cell cycle progression (cells in S phase) in siRNA-transfected U266B1 cells; assay type: cell-based; details: control mock and negative control siRNA-transfected cells; average of 3 days of treatment; pomalidomide 1 μM, lenalidomide 10 μM
Description: Drugs such as lenalidomide and pomalidomide have direct anti-proliferative activity against MM cells by inducing cell cycle arrest in G1 phase, followed by a decrease in viability. To study the role of CRBN in lenalidomide and other drugs anti-proliferative activities, H929 and U266B1 cells, two sensitive myeloma lines, were transfected with CRBN-siRNAs or control siRNAs for 24, 48, 72 and 96 hours. Cells were treated 24 h after transfection with DMSO (0.1%), pomalidomide (1 μM) and lenalidomide (10 μM) for 1, 2, 3 days to evaluated the compound effect on CRBN protein, mRNA expression and the effect on cell cycle and proliferation. […] CRBN down regulation was confirmed by RT-PCR and Western blot using the CRBN70 antibody (FIG. 1).
Knockdown of CRBN markedly abrogated the lenalidomide and pomalidomide-induced delay in cell cycle progression in U266B1 cells. Id.

`Nc1cccc2c1CN(C1CCC(=O)NC1=O)C2=O` (stereo not drawn) [lenalidomide, 3-(4-amino-1-oxo-1,3-dihydro-isoindol-2-yl)-piperidine-2,6-dione] was tested, and the tumor size (OCI-Ly10 DLBCL cells; 3-30 mg/kg po, qdX28, p<0.01) was “significantly decreased tumor size”, the “toxicity based upon mouse weight” value (OCI-Ly10 DLBCL cells; throughout study) was “No pronounced toxicity” and the “reduction of IRF4 expression and BCL-10 cleavage compared with vehicle control group” value (OCI-Ly10 DLBCL cells; treatment for 7 days, p<0.05) was 15-35%. For the same compound, the IRF4 levels (IRF4; OCI-Ly3 cells, 1-3 day treatments) was “neither lenalidomide nor the PKCβ inhibitor had any appreciable effect”, the IRF4 protein levels (IRF4; sensitive cell lines U2932 and OCI-Ly10, treatment for 1-3 days) was “significantly downregulate” and the “delay of cell cycle progression, measured as the decrease of the number of cells in S phase” value (U266B1 cells) was 40%.
